From patent US8697694B2, “Substituted pyridine and pyrimidine derivatives and their use in treating viral infections” (priority 2008, dated 2014)

These molecules were tested on HCV replicon cells (assay: Cell-based HCV replicon assay (replicon RNA level by real time PCR, Taqman)). Settings: Hepatitis C virus, 72 h, HCV replicon cells, harvested day 3, replicon RNA by real time PCR; given as number; read-out: EC90 (μM) range.
Description: Assays Cell-Based HCV Replicon Assay
To measure cell-based anti-HCV activity of the compounds of the present invention, replicon cells were seeded at 5000 cells/well in 96-well collagen I-coated Nunc plates in the presence of the compound of the invention. Various concentrations of a compound of the invention, typically in 10 serial 2-fold dilutions, were added to the assay mixture, the starting concentration of the compound ranging from 25 μM to 1 μM. The final concentration of DMSO was 0.5%, fetal bovine serum was 10%, in the assay media. Cells were harvested on day 3 by the addition of 1× cell lysis buffer (Ambion cat #8721). The replicon RNA level was measured using real time PCR (Taqman assay). The amplicon was located in 5B. The PCR primers were: 5B.2F, ATGGACAGGCGCCCTGA (SEQ. ID NO. 1); 5B.2R, […] (SEQ. ID NO. 2); the probe sequence was FAM-labeled CACGCCATGCGCTGCGG (SEQ. ID NO. 3). GAPDH RNA was used as endogenous control and was amplified in the same reaction as NS5B (multiplex PCR) using primers and VIC-labeled probe recommended by the manufacturer (PE Applied Biosystem). The real-time RT-PCR reactions were run on ABI PRISM 7900HT Sequence Detection System using the following program: 48′C for 30 min, 95° C. for 10 min, 40 cycles of 95° C. for 15 sec, 60° C. for 1 min. The ΔCT values (CT5B-CTGAPDH) were plotted against the concentration of test compound and fitted to the sigmoid dose-response model using GraphPad PRISM software. EC50 was defined as the concentration of inhibitor necessary to achieve ΔCT=1 over the projected baseline; EC90 the concentration necessary to achieve ΔCT=3.2 over the baseline. Alternatively, to quantitate the absolute amount of replicon RNA, a standard curve was established by including serially diluted T7 transcripts of replicon RNA in the Taqman assay. All Taqman reagents were from PE Applied Biosystems. Such an assay procedure was described in detail in e.g. Malcolm et al., Antimicrobial Agents and Chemotherapy 50: 1013-1020 (2006).
HCV Replicon assay data for compounds of the invention that were tested was obtained using the above method. Calculated EC90 values are reported for each compound in Table I as a falling within the following ranges: […]
For `CCN(CC)C(=O)OC[C@H]1C[C@@H](Nc2nc(NCC(F)(F)F)nc(C)c2-c2nc3ccccc3s2)[C@H](O)[C@@H]1O` [Example 65], the EC90 was 1 µM. `CCCOc1cc2cc(-c3c(C)nc(NCC4CC4)nc3N[C@@H]3C[C@H](CO)[C@@H](O)[C@H]3O)oc2cn1` [Example 62] was tested, and the EC90 was 0.7 µM. `Cc1nc(NCC(C)(C)C)nc(N[C@@H]2C[C@H](CO)[C@@H](O)[C@H]2O)c1-c1cc2cc(OCC(F)(F)F)nc(C)c2o1` [Example 46] showed an EC90 of 0.85 µM.

Same assay, conditions: Hepatitis C virus, 72 h, HCV replicon cells, harvested day 3, replicon RNA by real time PCR; reported as range class; read-out: EC90 (μM) range
In the case of `Nc1nc(Cl)c(-c2cncs2)c(N[C@@H]2C[C@H](CO)[C@@H](O)[C@H]2O)n1` [Example 163], the EC90 is reported as greater than 5 µM. With `Cc1ccc2oc(-c3c(Cl)nc(N)nc3N[C@@H]3C[C@H](CO)[C@@H](O)[C@H]3O)nc2c1` [Example 193] the EC90 was greater than 5 µM. Work on `Nc1nc(Cl)c(-c2cc3ccccc3s2)c(N[C@@H]2C[C@H](CO)[C@@H](O)[C@H]2O)n1` [Example 102] yielded an EC90 greater than 5 µM. For `COc1cc2cc(-c3c(Cl)nc(NCC(F)(F)F)nc3N[C@@H]3C[C@H](CO)[C@@H](O)[C@H]3O)oc2cn1` [Example 22], the EC90 was less than 0.5 µM. Molecule `CN(C)c1nc(N[C@@H]2C[C@H](CO)[C@@H](O)[C@H]2O)c(-c2nc3ccccc3s2)c(-c2cccs2)n1` [Example 415] has an EC90 greater than 5 µM. With `CCOCCNc1nc(Cl)c(-c2nc3ccccc3s2)c(N[C@@H]2C[C@H](CO)[C@@H](O)[C@H]2O)n1` [Example 206] the EC90 was less than 0.5 µM. `COc1cc2cc(-c3c(Cl)nc(N)nc3N[C@@H]3C[C@H](CO)[C@@H](O)[C@H]3O)oc2c(C)n1` [Example 14] gave an EC90 of less than 0.5 µM. In the case of `Nc1nc(Cl)c(-c2cc3cncnc3o2)c(N[C@@H]2C[C@H](CO)[C@@H](O)[C@H]2O)n1` [Example 402], the EC90 is reported as greater than 5 µM. With `CNc1ccc2sc(-c3c(Cl)nc(N)nc3N[C@@H]3C[C@H](CO)[C@@H](O)[C@H]3O)nc2c1` [Example 194] the EC90 was less than 0.5 µM.

Same assay, conditions: Hepatitis C virus, 72 h, HCV replicon cells, harvested on day 3, replicon RNA by real time PCR; calculated EC90 reported as range class; read-out: EC90 (μM) range
Molecule `OC[C@H]1C[C@@H](Nc2nc(NC(CF)CF)nc(Cl)c2-c2nc3ccccc3s2)[C@H](O)[C@@H]1O` [Example 129] has an EC90 of less than 0.5 µM. `CCCCCNc1nc(C)c(-c2cc3cc(CCC)nc(C)c3o2)c(N[C@@H]2C[C@H](CO)[C@@H](O)[C@H]2O)n1` [Example 448] showed an EC90 of less than 0.5 µM. Work on `COc1cc(CNc2nc(C)c(-c3cc4cc(OC)nc(C)c4o3)c(N[C@@H]3C[C@H](CO)[C@@H](O)[C@H]3O)n2)cc(OC)c1` [Example 348] yielded an EC90 of less than 0.5 µM. `COc1cc(CNc2nc(C)c(-c3nc4ccccc4s3)c(N[C@@H]3C[C@H](CO)[C@H]4OC(C)(C)O[C@H]43)n2)cc(OC)c1` [Example 500] showed an EC90 of less than 0.5 µM. For `CCc1cc2cc(-c3c(C)nc(NCCOC)nc3N[C@@H]3C[C@H](CO)[C@@H](O)[C@H]3O)oc2cn1` [Example 508], the EC90 was less than 0.5 µM. With `COc1cc(CNc2nc(C)c(-c3nc4ccccc4s3)c(N[C@@H]3C[C@H](CO)[C@@H](O)[C@H]3O)n2)cc(OC)c1OC` [Example 711] the EC90 was less than 0.5 µM. `CNc1ccc2sc(-c3c(C)nc(NCC(F)(F)F)nc3N[C@@H]3C[C@H](CO)[C@@H](O)[C@H]3O)nc2c1` [Example 260] gave an EC90 of less than 0.5 µM. Work on `CO[C@H](C)CNc1nc(C)c(-c2nc3ccccc3s2)c(N[C@@H]2C[C@H](CO)[C@@H](O)[C@H]2O)n1` [Example 231] yielded an EC90 of less than 0.5 µM. `Cc1nc(NC2CCOCC2)nc(N[C@@H]2C[C@H](CO)[C@@H](O)[C@H]2O)c1-c1nc2ccccc2s1` [Example 425] was tested, and the EC90 was less than 0.5 µM. `COCc1cc2cc(-c3c(C)nc(NCC(C)(C)C)nc3N[C@@H]3C[C@H](CO)[C@@H](O)[C@H]3O)oc2cn1` [Example 715] showed an EC90 of less than 0.5 µM. Molecule `CCc1cc2cc(-c3c(C)nc(NCc4cc(OC)cc(OC)c4)nc3N[C@@H]3C[C@H](CO)[C@@H](O)[C@H]3O)oc2cn1` [Example 346] has an EC90 of less than 0.5 µM. `CCCCCNc1nc(C)c(-c2nc3ccccc3s2)c(N[C@@H]2CC[C@@H](O)[C@H]2O)n1` [Example 327] gave an EC90 of less than 0.5 µM. `Cc1nc(NCc2ccc(F)cc2)nc(N[C@@H]2C[C@H](CO)[C@@H](O)[C@H]2O)c1-c1nc2ccccc2s1` [Example 238] gave an EC90 of less than 0.5 µM. For `Cc1nc(NCc2ccc(C(F)(F)F)cc2)nc(N[C@@H]2C[C@H](CO)[C@@H](O)[C@H]2O)c1-c1nc2ccccc2s1` [Example 242], the EC90 was less than 0.5 µM.

Same assay, conditions: Hepatitis C virus, 72 h, HCV replicon cells, replicon RNA level by real time PCR (Taqman), harvested on day 3; calculated EC90 reported as range class; read-out: EC90 (μM) range
For `COc1cc(OC)cc(Oc2nc(C)c(-c3nc4ccccc4s3)c(N[C@@H]3C[C@H](CO)[C@@H](O)[C@H]3O)n2)c1` [Example 1211], the EC90 was greater than 5 µM. Work on `COc1cc(Nc2nc(C)c(-c3nc4ccccc4s3)c(N[C@@H]3C[C@H](CO)[C@@H](O)[C@H]3O)n2)cc(OC)c1` [Example 1230] yielded an EC90 greater than 5 µM. With `Cc1nc(NCC2CC2)nc(N[C@@H]2C[C@H](CO)[C@@H](S(C)(=O)=O)[C@H]2O)c1-c1nc2ccccc2s1` [Example 1136] the EC90 was 0.5 to 5 µM. Work on `Cc1nc(NC(C)(C)c2ccccc2)nc(N[C@@H]2C[C@H](CO)[C@@H](O)[C@H]2O)c1-c1nc2cnccc2s1` [Example 1229] yielded an EC90 of 0.5 to 5 µM. `Cc1nc(NCc2cccc(N(C)C)c2)nc(N[C@@H]2C[C@H](CO)[C@H]3OC(C)(C)O[C@H]32)c1-c1nc2ccccc2s1` [Example 1105] showed an EC90 of 0.5 to 5 µM. `CCc1nccc2sc(-c3c(C)nc(NCC(C)(C)C)nc3N[C@@H]3C[C@H](CO)[C@@H](O)[C@H]3O)nc12` [Example 1334] showed an EC90 of less than 0.5 µM. `CCOCCNc1nc(C)c(-c2nc3cc(OC(F)F)c(OC(F)F)cc3s2)c(N[C@@H]2C[C@H](CO)[C@H]3OC(C)(C)O[C@H]32)n1` [Example 1001] showed an EC90 greater than 5 µM. `Cc1cc2nc(-c3c(C)nc(NCC(F)(F)F)nc3N[C@@H]3C[C@H](CO)[C@@H](O)[C@H]3O)sc2cc1C` [Example 1061] was tested, and the EC90 was 0.5 to 5 µM. `CCc1cc2cc(-c3c(C)nc(O)nc3N[C@@H]3C[C@H](CO)[C@@H](O)[C@H]3O)oc2cn1` [Example 1303] was tested, and the EC90 was 0.5 to 5 µM. In the case of `Cc1nc(NCC2CC2)nc(N[C@@H]2C[C@H](CO)[C@@H](O)[C@H]2O)c1-c1nc2ccccc2o1` [Example 528], the EC90 is reported as 0.5 to 5 µM. With `Cc1nc(NCCOC(F)(F)F)nc(N[C@@H]2C[C@H](CO)[C@@H](O)[C@H]2O)c1-c1nc2ccccc2s1` [Example 1066] the EC90 was less than 0.5 µM.

Same assay, conditions: Hepatitis C virus, 72 h, HCV replicon cells, replicon RNA level by real time PCR, harvested day 3; read-out: EC90 (μM) range
`Cc1nc(NCc2c(F)cccc2F)nc(N[C@@H]2CC[C@@H](O)[C@@]2(C)O)c1-c1nc2cnccc2s1` [Example 1808] was tested, and the EC90 was less than 0.5 µM. Work on `Cc1nc(N[C@H](C)c2ccc(OC(F)(F)F)cc2)nc(N[C@@H]2CC[C@@H](O)[C@@]2(C)O)c1-c1nc2cnccc2s1` [Example 1542] yielded an EC90 of 0.5 to 5 µM. `CCCc1nccc2sc(-c3c(C)nc(N[C@H](C)C4CC4)nc3N[C@@H]3C[C@H](CS(C)(=O)=O)[C@@H](O)[C@H]3O)nc12` [Example 1381] gave an EC90 of less than 0.5 µM. `Cc1nc(NCC(F)(F)F)nc(N[C@@H]2C[C@H](C)[C@@H](O)[C@H]2O)c1-c1nc2cnccc2s1` [Example 1633] gave an EC90 of less than 0.5 µM. `Cc1nc(NCC(F)(F)F)nc(N[C@@H]2C[C@H](Cn3ccnn3)[C@@H](O)[C@H]2O)c1-c1nc2ccccc2s1` [Example 1538] gave an EC90 of less than 0.5 µM. Molecule `Cc1nc(N[C@H](C)c2ccc(C(F)(F)F)cc2)nc(N[C@@H]2C[C@H](CO)[C@@H](O)[C@H]2O)c1-c1nc2c(C)nccc2s1` [Example 1356] has an EC90 of less than 0.5 µM. With `Cc1nc(N[C@@H](c2ccsc2)C(F)(F)F)nc(N[C@@H]2C[C@H](CO)[C@@H](O)[C@H]2O)c1-c1nc2ccccc2s1` [Example 1703] the EC90 was 0.5 to 5 µM. Molecule `Cc1nc(NCC2CC2)nc(N[C@@H]2CC[C@@H](O)[C@@]2(C)O)c1-c1nc2ccccc2s1` [Example 1701] has an EC90 of 0.5 to 5 µM. Work on `CCOCCNc1nc(C)c(-c2nc3c(CC)nccc3s2)c(N[C@@H]2C[C@H](CO)[C@@H](O)[C@H]2O)n1` [Example 1504] yielded an EC90 of less than 0.5 µM. `Cc1nc(C(N)=O)nc(N[C@@H]2C[C@H](CO)[C@@H](O)[C@H]2O)c1-c1nc2ccccc2s1` [Example 1903] showed an EC90 greater than 5 µM. `Cc1nc(NCC(F)(F)F)nc(N[C@@H]2C[C@H](CNS(=O)(=O)CCN)[C@@H](O)[C@H]2O)c1-c1nc2ccccc2s1` [Example 1518] was tested, and the EC90 was greater than 5 µM. Work on `Cc1nc(NCc2c(F)cccc2F)nc(N[C@@H]2CC[C@@H](O)[C@@]2(C)O)c1-c1nc2c(C)nccc2s1` [Example 1814] yielded an EC90 of less than 0.5 µM. `CCS(=O)(=O)NC[C@H]1C[C@@H](Nc2nc(NCC(F)(F)F)nc(C)c2-c2nc3ccccc3s2)[C@H](O)[C@@H]1O` [Example 1521] showed an EC90 of 0.5 to 5 µM. `Cc1nc(NCC(F)(F)F)nc(N[C@@H]2C[C@H](CNS(=O)(=O)C3CC3)[C@@H](O)[C@H]2O)c1-c1nc2ccccc2s1` [Example 1513] was tested, and the EC90 was 0.5 to 5 µM.
